Measurements published in patent US20040087480A1, “Calcium channel target for controlling epidermal keratinocyte growth in psoriasis, and basal and squamous cell carcinomas” (Fujisawa Pharmaceutical Co. Ltd., priority 2002, published 2004).
Several values for one entry are separate records, joined by “and”; a condition that tells them apart may be missing. Equal values may be shown once.

Columns and labels:
hECaC2 [1] = experiment: Quantitative TaqMan PCR of hECaC2 mRNA (normalized to GAPDH) in cultured human epidermal keratinocytes; format: cell-based; conditions: for increase in hECaC2 expression: 2 mM calcium and/or 1 μM VitD, relative to untreated, time-matched cultures
Experimental: Quantitative, TaqMan-based PCR was used to assess changes in mRNA levels for hECaC2 (normalized to GAPDH) from keratinocyte cultures grown in 2 mM calcium or 1 μM VitD over 1 and 3 days. mRNA levels are expressed as fold-changes versus levels measured in sibling cultures grown for 1 and 3 days in basal calcium (0.06 mM) and no VitD. VitD caused greater increases in hECaC2 expression than did calcium. […] Note differences in scaling of y-axes. All increases are significant from control with the exception of calcium at 1 day. Results are mean-±SEM from three experiments.
(§1) There is currently no published data on expression of either hECaC1 or hECaC2 in either primary human keratinocytes or human skin, although murine ECaC2 expression has been reported for mouse skin (Weber et al, 2001 Biochem Biophys Res Commun 289:1287-1294). Therefore, the inventors investigated if keratinocytes expressed either or both ECaC channels, and whether expression of these channels was correlated with cell differentiation stimulated by either calcium or VitD. […] However, hECaC2 expression was readily detected in these same cultures. At 1 and 3 days of culture hECaC2 expression levels were 0.014±0.002% and 0.005±0.0005% of GAPDH (N=3). […] Therefore, the observed absence of hECaC1 expression in keratinocytes was indeed due to the mRNA for this gene being at levels so low that they were undetectable.
(§2) The effects of elevated calcium or VitD on expression of hECaC1 or 2 in cultured keratinocytes were investigated. […] After 1 day in 2 mM calcium there was a small but consistent decrease in hECaC2 expression, which averaged approximately 85% of the untreated control.

hECaC1 [2] = experiment: Quantitative PCR of hECaC1 expression in cultured human keratinocytes; format: cell-based; conditions: up to 3 days treatment with 2 mM calcium or 1 μM VitD
Description: as §1, §2

murine ECaC1 or 2 = conditions: including in skin; Weber et al, 2001; cited from earlier work
hECaC2 [3] = conditions: Caco-2 cells; Wood et al, 2001; cited from earlier work
hECaC1 [4] = conditions: 1 μM VitD, cultured skin biopsies
Experimental: The effect of VitD on gene expression in cultured biopsies was assessed by comparing mRNA levels in the treated biopsies to levels in untreated biopsies cultured for the same number of days (FIG. 4).

hECaC2 [5] = experiment: Quantitative PCR of hECaC2 mRNA in cultured human skin biopsies (explant culture); format: cell-based; conditions: 1 μM VitD in culture medium (1.4 mM calcium), versus untreated biopsies cultured the same number of days
Experimental: Skin biopsies were taken from healthy donors and cultured for the indicated times with 1 μM VitD or with vehicle added to the culture medium. mRNA levels for hECaC2 were measured by quantitative PCR, normalized to GAPDH, and fold changes in expression were calculated relative to vehicle treated controls. Results are mean±SEM from two experiments.
The effect of VitD on hECaC2 expression in skin explants over time in culture was next examined, but the dynamics of gene expression in this system had to first be defined. All experiments with explant, cultured skin biopsies were performed in medium containing 1.4 mM calcium, a requirement for long-term viability (Varani et al, 1993 Am J Pathol 142:189-198). Biopsies placed in RNALater at time of collection were used to define expression levels of these genes at “−1” days in culture. Biopsies for which RNA was extracted immediately upon arrival in the lab (after overnight shipping from the source) were designated as “0” days in culture. Data for days 1 and 3 are from biopsies which were then cultured in the lab. All biopsies for an experiment were from the same donor.

Compound	hECaC2 expression, % of the untreated control (hECaC2 [1]; 1 day in 2 mM calcium)	increase in hECaC2 expression (hECaC2 [1]; 3 days treatment)	hECaC1 expression (hECaC1 [2])	murine ECaC1 or 2 expression response to VitD (murine ECaC1 or 2)	increase in hECaC2 expression (hECaC2 [1]; 1 day treatment)	hECaC2 expression response to VitD (hECaC2 [3])	hECaC1 expression in response to VitD (hECaC1 [4])	increase in hECaC2 expression (hECaC2 [5]; 1 day) [fold]	increase in hECaC2 expression (hECaC2 [5]; 3 days) [fold]
[Ca+2] [calcium]	approximately 85%	approximately 3.8 fold	not detected						
Vitamin D [VitD]		51 fold	not detected	unresponsive	63 fold and 60 fold	upregulated	nor was expression induced	3.6	7.8
